Measured values taken from patent US11020395B2, “Cycloalkyl substituted triazole compounds as agonists of the APJ receptor” (AMGEN INC., priority 2016, dated 2021).

target: human APJ receptor (Homo sapiens (Human), UniProt P35414); test: [35S]GTPγS binding assay on membranes from CHO cells stably expressing human APJ receptor; assay type: biochemical; settings: [35S]GTPγS SPA, read-out: Activity hAPJ SPA EC50 IP
Experimental: [^35S]GTPγS Binding The human APJ receptor was cloned by polymerase chain reaction and the gene encoding the receptor was subcloned in pFLAG-CMV™-3 expression vector (Sigma, Saint Louis, Mo. USA) in-house at Amgen. A GTPγS binding assay was performed on membranes prepared from CHO cells stably expressing human APJ receptor. The optimum experimental conditions for the concentrations of GDP, MgCl2, and NaCl in the assay buffer were initially determined. […] Incubation was at RT for 90 min and the microplate was read using a ViewLux™ ultra HTS Microplate Imager (PerkinElmer, Inc.). All the results presented are means of several independent experiments and analyzed by non-linear regression methods using the commercially available program Prism (GraphPad, San Diego, Calif.) providing the EC50 values detailed in Table 25.

Sequence of human APJ receptor (P35414 whole entry): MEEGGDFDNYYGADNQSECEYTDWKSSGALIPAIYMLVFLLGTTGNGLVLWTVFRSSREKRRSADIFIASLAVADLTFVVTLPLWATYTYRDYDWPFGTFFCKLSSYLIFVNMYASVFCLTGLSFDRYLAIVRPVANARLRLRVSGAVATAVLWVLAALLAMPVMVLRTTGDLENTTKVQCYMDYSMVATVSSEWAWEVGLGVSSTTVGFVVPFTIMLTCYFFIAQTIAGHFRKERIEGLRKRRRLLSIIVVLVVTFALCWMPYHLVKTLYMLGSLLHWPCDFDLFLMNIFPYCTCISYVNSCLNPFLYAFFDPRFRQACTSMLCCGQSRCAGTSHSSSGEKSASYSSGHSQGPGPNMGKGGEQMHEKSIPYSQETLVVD

Compound	EC50 [nM]
COc1cccc(OC)c1-n1c(NS(=O)(=O)[C@@H](C)[C@H](OC)c2ncc(Cl)cn2)nnc1[C@H]1C[C@@H](C#N)C1 (single isomer, unassigned) [Example 121.0, (1R,2S)-1-(5-chloro-2-pyrimidinyl)-N-(5-(cis-3-cyanocyclobutyl)-4-(2,6-dimethoxyphenyl)-4H-1,2,4-triazol-3-yl)-1-methoxy-2-propanesulfonamide or (1R,2S)-1-(5-chloro-2-pyrimidinyl)-N-(5-(trans-3-cyanocyclobutyl)-4-(2,6-dimethoxyphenyl)-4H-1,2,4-triazol-3-yl)-1-methoxy-2-propanesulfonamide]	5.4
COc1cccc(OC)c1-n1c(NS(=O)(=O)[C@@H](C)[C@H](OC)c2ncc(Cl)cn2)nnc1[C@H]1C[C@@H](C#N)C1 (single isomer, unassigned) [Example 122.0, (1R,2S)-1-(5-chloro-2-pyrimidinyl)-N-(5-(cis-3-cyanocyclobutyl)-4-(2,6-dimethoxyphenyl)-4H-1,2,4-triazol-3-yl)-1-methoxy-2-propanesulfonamide or (1R,2S)-1-(5-chloro-2-pyrimidinyl)-N-(5-(trans-3-cyanocyclobutyl)-4-(2,6-dimethoxyphenyl)-4H-1,2,4-triazol-3-yl)-1-methoxy-2-propanesulfonamide]	28
COc1cccc(OC)c1-n1c(NS(=O)(=O)[C@@H](C)[C@H](OC)c2ncc(Cl)cn2)nnc1[C@H]1C[C@@H](CO)C1 (single isomer, unassigned) [Example 123.0, (1R,2S)-1-(5-chloro-2-pyrimidinyl)-N-(4-(2,6-dimethoxyphenyl)-5-(cis-3-(hydroxymethyl)cyclobutyl)-4H-1,2,4-triazol-3-yl)-1-methoxy-2-propanesulfonamide or (1R,2S)-1-(5-chloro-2-pyrimidinyl)-N-(4-(2,6-dimethoxyphenyl)-5-(trans-3-(hydroxymethyl)cyclobutyl)-4H-1,2,4-triazol-3-yl)-1-methoxy-2-propanesulfonamide]	5.1
COc1cccc(OC)c1-n1c(NS(=O)(=O)[C@@H](C)[C@H](OC)c2ncc(Cl)cn2)nnc1[C@H]1C[C@@H](CO)C1 (single isomer, unassigned) [Example 124.0, (1R,2S)-1-(5-chloro-2-pyrimidinyl)-N-(4-(2,6-dimethoxyphenyl)-5-(cis-3-(hydroxymethyl)cyclobutyl)-4H-1,2,4-triazol-3-yl)-1-methoxy-2-propanesulfonamide or (1R,2S)-1-(5-chloro-2-pyrimidinyl)-N-(4-(2,6-dimethoxyphenyl)-5-(trans-3-(hydroxymethyl)cyclobutyl)-4H-1,2,4-triazol-3-yl)-1-methoxy-2-propanesulfonamide]	49
COCC(COC)n1c(NS(=O)(=O)[C@@H](C)[C@H](OC)c2ncc(Cl)cn2)nnc1[C@H]1C[C@H](CO)C1 (single isomer, unassigned) [Example 130.0, (1R,2S)-1-(5-chloropyrimidin-2-yl)-N-(4-(1,3-dimethoxypropan-2-yl)-5-((1r,3S)-3-(hydroxymethyl)cyclobutyl)-4H-1,2,4-triazol-3-yl)-1-methoxypropane-2-sulfonamide or (1R,2S)-1-(5-chloropyrimidin-2-yl)-N-(4-(1,3-dimethoxypropan-2-yl)-5-((1s,3R)-3-(hydroxymethyl)cyclobutyl)-4H-1,2,4-triazol-3-yl)-1-methoxypropane-2-sulfonamide]	1500
COCC(COC)n1c(NS(=O)(=O)[C@@H](C)[C@H](OC)c2ncc(Cl)cn2)nnc1[C@H]1C[C@H](CO)C1 (single isomer, unassigned) [Example 131.0, (1R,2S)-1-(5-chloropyrimidin-2-yl)-N-(4-(1,3-dimethoxypropan-2-yl)-5-((1r,3S)-3-(hydroxymethyl)cyclobutyl)-4H-1,2,4-triazol-3-yl)-1-methoxypropane-2-sulfonamide or (1R,2S)-1-(5-chloropyrimidin-2-yl)-N-(4-(1,3-dimethoxypropan-2-yl)-5-((1s,3R)-3-(hydroxymethyl)cyclobutyl)-4H-1,2,4-triazol-3-yl)-1-methoxypropane-2-sulfonamide]	110
COCC1(n2c(NS(=O)(=O)[C@@H](C)[C@H](OC)c3ncc(Cl)cn3)nnc2[C@H]2C[C@H](CO)C2)CC1 (single isomer, unassigned) [Example 132.0, (1R,2S)-1-(5-chloro-2-pyrimidinyl)-N-(5-(trans-3-(hydroxymethyl)cyclobutyl)-4-(1-(methoxymethyl)cyclopropyl)-4H-1,2,4-triazol-3-yl)-1-methoxy-2-propanesulfonamide or (1R,2S)-1-(5-chloro-2-pyrimidinyl)-N-(5-(cis-3-(hydroxymethyl)cyclobutyl)-4-(1-(methoxymethyl)cyclopropyl)-4H-1,2,4-triazol-3-yl)-1-methoxy-2-propanesulfonamide]	1270
COCC1(n2c(NS(=O)(=O)[C@@H](C)[C@H](OC)c3ncc(Cl)cn3)nnc2[C@H]2C[C@H](CO)C2)CC1 (single isomer, unassigned) [Example 133.0, (1R,2S)-1-(5-chloro-2-pyriminidyl)-N-(5-(trans-3-(hydroxymethyl)cyclobutyl)-4-(1-(methoxymethyl)cyclopropyl)-4H-1,2,4-triazol-3-yl)-1-methoxy-2-propanesulfonamide or (1R,2S)-1-(5-chloro-2-pyrimidinyl)-N-(5-(cis-3-(hydroxymethyl)cyclobutyl)-4-(1-(methoxymethyl)cyclopropyl)-4H-1,2,4-triazol-3-yl)-1-methoxy-2-propanesulfonamide]	120
CO[C@H](c1ncc(Cl)cn1)[C@H](C)S(=O)(=O)Nc1nnc([C@H]2C[C@H](CO)C2)n1C1CC1 (single isomer, unassigned) [Example 134.0, (1R,2S)-1-(5-chloro-2-pyrimidinyl)-N-(4-cyclopropyl-5-(trans-3-(hydroxymethyl)cyclobutyl)-4H-1,2,4-triazol-3-yl)-1-methoxy-2-propanesulfonamide or (1R,2S)-1-(5-chloro-2-pyrimidinyl)-N-(4-cyclopropyl-5-(cis-3-(hydroxymethyl)cyclobutyl)-4H-1,2,4-triazol-3-yl)-1-methoxy-2-propanesulfonamide]	1330
CO[C@H](c1ncc(Cl)cn1)[C@H](C)S(=O)(=O)Nc1nnc([C@H]2C[C@H](CO)C2)n1C1CC1 (single isomer, unassigned) [Example 135.0, (1R,2S)-1-(5-chloro-2-pyrimidinyl)-N-(4-cyclopropyl-5-(trans-3-(hydroxymethyl)cyclobutyl)-4H-1,2,4-triazol-3-yl)-1-methoxy-2-propanesulfonamide or (1R,2S)-1-(5-chloro-2-pyrimidinyl)-N-(4-cyclopropyl-5-(cis-3-(hydroxymethyl)cyclobutyl)-4H-1,2,4-triazol-3-yl)-1-methoxy-2-propanesulfonamide]	1810
CO[C@H](c1ncc(Cl)cn1)[C@H](C)S(=O)(=O)Nc1nnc([C@H]2C[C@H](CO)C2)n1C(C)C (single isomer, unassigned) [Example 136.0, (1R,2S)-1-(5-chloro-2-pyrimidinyl)-N-(5-trans-3-(hydroxymethyl)cyclobutyl)-4-(2-propanyl)-4H-1,2,4-triazol-3-yl)-1-methoxy-2-propanesulfonamide or (1R,2S)-1-(5-chloro-2-pyrimidinyl)-N-(5-(cis-3-(hydroxymethyl)cyclobutyl)-4-(2-propanyl)-4H-1,2,4-triazol-3-yl)-1-methoxy-2-propanesulfonamide]	3200
CO[C@H](c1ncc(Cl)cn1)[C@H](C)S(=O)(=O)Nc1nnc([C@H]2C[C@H](CO)C2)n1C(C)C (single isomer, unassigned) [Example 137.0, (1R,2S)-1-(5-chloro-2-pyrimidinyl)-N-(5-(trans-3-(hydroxymethyl)cyclobutyl)-4-(2-propanyl)-4H-1,2,4-triazol-3-yl)-1-methoxy-2-propanesulfonamide or (1R,2S)-1-(5-chloro-2-pyrimidinyl)-N-(5-(cis-3-(hydroxymethyl)cyclobutyl)-4-(2-propanyl)-4H-1,2,4-triazol-3-yl)-1-methoxy-2-propanesulfonamide]	340
COc1ncnc(OC)c1-n1c(NS(=O)(=O)[C@@H](C)[C@H](OC)c2ncc(Cl)cn2)nnc1[C@H]1CC[C@@H](C(F)F)CC1 (single isomer, unassigned) [Example 144.0, (1R,2S)-1-(5-chloro-2-pyrimidinyl)-N-(5-(cis-4-(difluoromethyl)cyclohexyl)-4-(4,6-dimethoxy-5-pyrimidinyl)-4H-1,2,4-triazol-3-yl)-1-methoxy-2-propanesulfonamide or (1R,2S)-1-(5-chloro-2-pyrimidinyl)-N-(5-(trans-4-(difluoromethyl)cyclohexyl)-4-(4,6-dimethoxy-5-pyrimidinyl)-4H-1,2,4-triazol-3-yl)-1-methoxy-2-propanesulfonamide]	620
COc1ncnc(OC)c1-n1c(NS(=O)(=O)[C@@H](C)[C@H](OC)c2ncc(Cl)cn2)nnc1[C@H]1CC[C@@H](C(F)F)CC1 (single isomer, unassigned) [Example 145.0, (1R,2S)-1-(5-chloro-2-pyrimidinyl)-N-(5-(cis-4-(difluoromethyl)cyclohexyl)-4-(4,6-dimethoxy-5-pyrimidinyl)-4H-1,2,4-triazol-3-yl)-1-methoxy-2-propanesulfonamide or (1R,2S)-1-(5-chloro-2-pyrimidinyl)-N-(5-(trans-4-(difluoromethyl)cyclohexyl)-4-(4,6-dimethoxy-5-pyrimidinyl)-4H-1,2,4-triazol-3-yl)-1-methoxy-2-propanesulfonamide]	4.8
